US6514911B1, “Substituted oxadiazines useful as pesticides” (Uniroyal Chemical Company, Inc., priority 2002, dated 2003)

Experiments:
Type in all cases: in vivo
[1] = test system: jimsonweed (Datura stramonium L.) (JW); assay: Preemergence herbicide test, soil drench, jimsonweed; conditions: 10 lbs/A (11.2 kg/ha) soil drench, two weeks after treatment, vs untreated checks
Protocol: (§1) To illustrate the effectiveness of the previously described substituted oxadiazines of this invention as preemergence herbicides, 300 mg of the chemical was dissolved in a composition comprising 10 mL acetone to which 30 mg of tile emulsifying agent, ethoxylated sorbitan monolaurate, was added. The solution was diluted to 100 mL with distilled water. Ten milliliters of this 3000 ppm solution was diluted to 250 ppm with distilled water. The chemical was applied at the rate of 10 pounds/acre (11.2 kg/ha) by drenchings 46 mL of the 250 ppm solution on the surface of soil in 4½ inch (11.25 cm) plastic pots wherein seeds of the following weeds had been planted: jimsonweed (Datura stramonium L.) (JW), The percent control of the weeds compared to untreated checks was determined two weeks after treatment. TABLE 1 summarizes the results achieved with compounds formulated as indicated above, and the data clearly indicate the good to excellent herbicidal efficacy of compositions of this invention.

[2] = test system: green foxtail (Setaria virdis (L.) Beauv.) (GF); assay: Preemergence herbicide test, soil drench, green foxtail; conditions: 10 lbs/A (11.2 kg/ha) soil drench, two weeks after treatment, vs untreated checks; for pest or weed control at 11208.5 g/ha: Setaria, 336 h, read-out: Percent Weed Control GF
Protocol: as §1, with “41⁄2” for “4½”, “green foxtail (Setaria […].) Beauv.) (GF).” for “jimsonweed (Datura stramonium L.) (JW),”

[3] = test system: switchgrass (Panicum virgahim L.) (SG); assay: Preemergence herbicide test, soil drench, switchgrass; conditions: 10 lbs/A (11.2 kg/ha) soil drench, two weeks after treatment, vs untreated checks; for pest or weed control at 11208.5 g/ha: Panicum, 336 h, read-out: Percent Weed Control SG
Protocol: as §1, with “planted:” for “planted: jimsonweed (Datura stramonium L.) (JW), The percent control of the weeds compared to untreated checks was determined two weeks after treatment. TABLE 1 summarizes the results achieved with compounds formulated as indicated above, and the data clearly indicate the good to excellent herbicidal efficacy of compositions of this invention.”
switchgrass (Panicum virgahim L.) (SG),
(§2) The percent control of the weeds compared to untreated checks was determined two weeks after treatment. TABLE 1 summarizes the results achieved with compounds formulated as indicated above, and the data clearly indicate the good to excellent herbicidal efficacy of compositions of this invention.

[4] = test system: tall morningglory (Ipomoea purpurea (L.) Roth) (TM); assay: Preemergence herbicide test, soil drench, tall morningglory; conditions: 10 lbs/A (11.2 kg/ha) soil drench, two weeks after treatment, vs untreated checks; for pest or weed control at 11208.5 g/ha: Ipomoea, 336 h, read-out: Percent Weed Control TM
Protocol: as §1, with “tall morningglory (Ipomoea purpurea (L.) Roth) (TM),” for “jimsonweed (Datura stramonium L.) (JW),”

[5] = test system: velvetleaf (Abutilon theophrasti Medik.) (VL); assay: Preemergence herbicide test, soil drench, velvetleaf; conditions: 10 lbs/A (11.2 kg/ha) soil drench, two weeks after treatment, vs untreated checks; for pest or weed control at 11208.5 g/ha: Abutilon theophrasti, 336 h, read-out: Percent Weed Control VL
Protocol: as §1, with “velvetleaf (Abutilon theophrasti Medik.) (VL),” for “jimsonweed (Datura stramonium L.) (JW),”

[6] = test system: barnyardgrass (Echinochloa crus-galli (L.) Beauv.) (BG); assay: Preemergence herbicide test, soil drench, barnyardgrass; conditions: 10 lbs/A (11.2 kg/ha) soil drench, two weeks after treatment, vs untreated checks; for pest or weed control at 11208.5 g/ha: Echinochloa crus-galli, 336 h, read-out: Percent Weed Control BG
Protocol: as §1, with “barnyardgrass (Echinochloa crus-galli (L.) Beauv.) (BG), and” for “jimsonweed (Datura stramonium L.) (JW),”

[7] = test system: prickly sida (Sida spinosa L.) (PS); assay: Preemergence herbicide test, soil drench, prickly sida; conditions: 10 lbs/A (11.2 kg/ha) soil drench, two weeks after treatment, vs untreated checks; for pest or weed control at 11208.5 g/ha: Sida spinosa, 336 h, read-out: Percent Weed Control PS
Protocol: To illustrate the effectiveness of the previously described substituted oxadiazines of this invention as preemergence herbicides, 300 mg of the chemical was dissolved in a composition comprising 10 mL acetone to which 30 mg of tile emulsifying agent, ethoxylated sorbitan monolaurate, was added. The solution was diluted to 100 mL with distilled water. Ten milliliters of this 3000 ppm solution was diluted to 250 ppm with distilled water. […]
prickly sida (Sida spinosa L.) (PS),
as §2

SMILES	Percent Weed Control JW [1] [%]	pest or weed control at 11208.5 g/ha [2] [%]	pest or weed control at 11208.5 g/ha [3] [%]	pest or weed control at 11208.5 g/ha [4] [%]	pest or weed control at 11208.5 g/ha [5] [%]	pest or weed control at 11208.5 g/ha [6] [%]	pest or weed control at 11208.5 g/ha [7] [%]	Percent Weed Control GF [2] [%]	Percent Weed Control SG [3] [%]	Percent Weed Control PS [7] [%]	Percent Weed Control TM [4] [%]	Percent Weed Control VL [5] [%]	Percent Weed Control BG [6] [%]
FC(F)(F)C1=NC(C(F)(F)F)(C(F)(F)F)N=C(c2ccc(Cl)cc2)O1 [Compound 5, 2-(4-chlorophenyl)-4,4,6-tris(trifluoromethyl)-4H-1,3,5-oxadiazine]	100	100	100	100	100	100							
FC(F)(F)C(F)(F)C1=NC(C(F)(F)F)(C(F)(F)F)N=C(c2ccccc2Cl)O1 [Compound 12, 2-(2-chlorophenyl)-6-(pentafluoroethyl)-4,4-bis(trifluoromethyl)-4H-1,3,5-oxadiazine]	100	100	75	100	100	0							
Cc1cccc(C2=NC(C(F)(F)F)(C(F)(F)F)N=C(C(F)(F)C(F)(F)F)O2)c1 [Compound 22, 2-(3-methylphenyl)-6-(pentafluoroethyl)-4,4-bis(trifluoromethyl)-4H-1,3,5-oxadiazine]	100	50	0	0	100	0							
Nc1ccc(C2=NC(C(F)(F)F)(C(F)(F)F)N=C(C(F)(F)F)O2)cc1 [Compound 9, 2-(4-aminophenyl)-4,4,6-tris(trifluoromethyl)-4H-1,3,5-oxadiazine]		90	90	0	90	0	0						
Fc1ccccc1C1=NC(C(F)(F)F)(C(F)(F)F)N=C(C(F)(F)F)O1 [Compound 3, 2-(2-fluorophenyl)-4,4,6-tris(trifluoromethyl)-4H-1,3,5-oxadiazine]		40	30	0	100	0	0						
Fc1ccc(C2=NC(C(F)(F)F)(C(F)(F)F)N=C(C(F)(F)C(F)(F)F)O2)cc1 [Compound 17, 2-(4-fluorophenyl)-6-(pentafluoroethyl)-4,4-bis(trifluoromethyl)-4H-1,3,5-oxadiazine]		50	50	100	100	100	100						
FC(F)(F)c1ccc(C2=NC(C(F)(F)F)(C(F)(F)F)N=C(C(F)(F)C(F)(F)C(F)(F)F)O2)cc1 [Compound 30, 2-(heptafluoropropyl)-4,4-bis(trifluoromethyl)-6-{(4-trifluoromethyl)phenyl}-4H-1,3,5-oxadiazine]								100	100	100	100	100	100
FC(F)(F)C(F)(F)C(F)(F)C1=NC(C(F)(F)F)(C(F)(F)F)N=C(c2ccc(Br)cc2)O1 [Compound 27, 2-(4-bromophenyl)-6-(heptafluoropropyl)-4,4-bis(trifluoromethyl)-4H-1,3,5-oxadiazine]		0	0	95	100	0	100						
FC(F)(F)C(F)(F)C1=NC(C(F)(F)F)(C(F)(F)F)N=C(c2ccccc2)O1 [Compound 11, 2-(pentafluoroethyl)-6-phenyl-4,4-bis(trifluoromethyl)-4H-1,3,5-oxadiazine]		50	0	100	100	0	100						
